Tests used:
Assay in all cases: KINOMEscan competition binding
Conditions in all cases: compound 10.0 µM
SRC (human) = SRC (human) (UniProt P12931)
MYLK3 (human) = MYLK3 (human) (UniProt Q32MK0)
IRAK4 (human) = IRAK4 (human) (UniProt Q9NWZ3)
FER (human) = FER (human) (UniProt P16591)
ROCK2 (human) = ROCK2 (human) (UniProt O75116)
DCLK3 (human) = DCLK3 (human) (UniProt Q9C098)
ZAP70 (human) = ZAP70 (human) (UniProt P43403)
CDK13 (human) = CDK13 (human) (UniProt Q14004)
OXSR1 (human) = OXSR1 (human) (UniProt O95747)
PAK4 (human) = PAK4 (human) (UniProt O96013)
TAOK2 (human) = TAOK2 (human) (UniProt Q9UL54)
RET (human) = RET (human) (UniProt P07949)
MELK (human) = MELK (human) (UniProt Q14680)
MAPKAPK2 (human) = MAPKAPK2 (human) (UniProt P49137)
STK32B (human) = STK32B (human) (UniProt Q9NY57)
ADCK3 (human) = ADCK3 (human) (UniProt Q8NI60)
SIK1 (human) = SIK1 (human) (UniProt P57059)
CDK18 (human) = CDK18 (human) (UniProt Q07002)
INSRR (human) = INSRR (human) (UniProt P14616)
SBK1 (human) = SBK1 (human) (UniProt Q52WX2)
MAPK9 (human) = MAPK9 (human) (UniProt P45984)
PIP5K1C (human) = PIP5K1C (human) (UniProt O60331)
ABL2 (human) = ABL2 (human) (UniProt P42684)
TGFBR1 (human) = TGFBR1 (human) (UniProt P36897)
HIPK4 (human) = HIPK4 (human) (UniProt Q8NE63)
PAK6 (human) = PAK6 (human) (UniProt Q9NQU5)
MAPK4 (human) = MAPK4 (human) (UniProt P31152)
PRKCQ (human) = PRKCQ (human) (UniProt Q04759)
CSNK2A2 (human) = CSNK2A2 (human) (UniProt P19784)
CDKL5 (human) = CDKL5 (human) (UniProt O76039)
FLT1 (human) = FLT1 (human) (UniProt P17948)
[1] = test system: EGFR (human), P00533 [T790M/L858R]
DAPK1 (human) = DAPK1 (human) (UniProt P53355)
MAP3K10 (human) = MAP3K10 (human) (UniProt Q02779)
STK32C (human) = STK32C (human) (UniProt Q86UX6)
EPHA6 (human) = EPHA6 (human) (UniProt Q9UF33)
PKMYT1 (human) = PKMYT1 (human) (UniProt Q99640)
MAP2K1 (human) = MAP2K1 (human) (UniProt Q02750)
MYLK2 (human) = MYLK2 (human) (UniProt Q9H1R3)
PTK6 (human) = PTK6 (human) (UniProt Q13882)
Sequence of PTK6 (human) (Q13882 whole entry, looked up): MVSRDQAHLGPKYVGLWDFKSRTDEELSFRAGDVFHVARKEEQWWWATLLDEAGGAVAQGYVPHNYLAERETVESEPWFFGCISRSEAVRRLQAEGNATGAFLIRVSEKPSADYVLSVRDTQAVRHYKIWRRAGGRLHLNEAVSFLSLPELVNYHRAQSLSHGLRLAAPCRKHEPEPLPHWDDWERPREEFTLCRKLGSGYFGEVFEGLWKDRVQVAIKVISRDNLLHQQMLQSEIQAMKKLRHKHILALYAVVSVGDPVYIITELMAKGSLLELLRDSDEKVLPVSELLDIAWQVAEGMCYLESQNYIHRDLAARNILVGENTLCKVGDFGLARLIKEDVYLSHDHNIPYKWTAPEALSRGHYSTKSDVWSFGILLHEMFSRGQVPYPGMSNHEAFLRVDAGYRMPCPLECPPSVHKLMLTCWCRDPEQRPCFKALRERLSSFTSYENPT

Sequence of HIPK4 (human) (Q8NE63 whole entry, looked up): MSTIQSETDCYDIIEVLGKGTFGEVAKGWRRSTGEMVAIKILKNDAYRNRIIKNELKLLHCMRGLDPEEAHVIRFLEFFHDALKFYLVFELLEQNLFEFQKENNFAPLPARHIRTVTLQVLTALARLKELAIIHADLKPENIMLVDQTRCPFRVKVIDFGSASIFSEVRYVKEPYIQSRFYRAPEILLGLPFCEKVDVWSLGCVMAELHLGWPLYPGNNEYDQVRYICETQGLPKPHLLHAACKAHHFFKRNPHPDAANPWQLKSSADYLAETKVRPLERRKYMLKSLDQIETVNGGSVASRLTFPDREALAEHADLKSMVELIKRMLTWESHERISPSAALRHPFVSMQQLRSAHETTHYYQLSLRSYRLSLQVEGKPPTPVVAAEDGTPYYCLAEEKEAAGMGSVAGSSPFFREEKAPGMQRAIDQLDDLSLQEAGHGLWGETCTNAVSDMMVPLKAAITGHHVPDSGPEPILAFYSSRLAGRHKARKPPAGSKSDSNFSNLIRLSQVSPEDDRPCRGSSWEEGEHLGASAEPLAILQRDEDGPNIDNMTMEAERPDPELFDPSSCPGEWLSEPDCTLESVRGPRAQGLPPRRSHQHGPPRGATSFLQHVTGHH
Sequence of DCLK3 (human) (Q9C098 whole entry, looked up): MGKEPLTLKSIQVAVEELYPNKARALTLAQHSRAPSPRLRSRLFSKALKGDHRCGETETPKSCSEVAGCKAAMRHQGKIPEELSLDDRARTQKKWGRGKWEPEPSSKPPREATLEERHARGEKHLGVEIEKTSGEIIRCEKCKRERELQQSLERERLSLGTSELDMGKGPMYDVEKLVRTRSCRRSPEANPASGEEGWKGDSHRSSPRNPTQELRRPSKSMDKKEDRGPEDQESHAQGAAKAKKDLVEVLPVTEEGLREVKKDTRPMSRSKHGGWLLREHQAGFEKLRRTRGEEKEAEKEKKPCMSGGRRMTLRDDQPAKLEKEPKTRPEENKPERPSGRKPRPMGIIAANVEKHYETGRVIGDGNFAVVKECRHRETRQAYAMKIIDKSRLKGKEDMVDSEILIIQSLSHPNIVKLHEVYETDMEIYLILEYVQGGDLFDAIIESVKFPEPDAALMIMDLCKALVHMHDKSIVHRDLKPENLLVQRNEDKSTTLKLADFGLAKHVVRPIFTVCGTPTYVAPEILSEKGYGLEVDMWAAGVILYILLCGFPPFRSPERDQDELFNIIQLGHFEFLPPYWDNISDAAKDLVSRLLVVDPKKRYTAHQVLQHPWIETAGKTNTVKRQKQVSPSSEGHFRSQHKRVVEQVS
Sequence of INSRR (human) (P14616 whole entry, looked up): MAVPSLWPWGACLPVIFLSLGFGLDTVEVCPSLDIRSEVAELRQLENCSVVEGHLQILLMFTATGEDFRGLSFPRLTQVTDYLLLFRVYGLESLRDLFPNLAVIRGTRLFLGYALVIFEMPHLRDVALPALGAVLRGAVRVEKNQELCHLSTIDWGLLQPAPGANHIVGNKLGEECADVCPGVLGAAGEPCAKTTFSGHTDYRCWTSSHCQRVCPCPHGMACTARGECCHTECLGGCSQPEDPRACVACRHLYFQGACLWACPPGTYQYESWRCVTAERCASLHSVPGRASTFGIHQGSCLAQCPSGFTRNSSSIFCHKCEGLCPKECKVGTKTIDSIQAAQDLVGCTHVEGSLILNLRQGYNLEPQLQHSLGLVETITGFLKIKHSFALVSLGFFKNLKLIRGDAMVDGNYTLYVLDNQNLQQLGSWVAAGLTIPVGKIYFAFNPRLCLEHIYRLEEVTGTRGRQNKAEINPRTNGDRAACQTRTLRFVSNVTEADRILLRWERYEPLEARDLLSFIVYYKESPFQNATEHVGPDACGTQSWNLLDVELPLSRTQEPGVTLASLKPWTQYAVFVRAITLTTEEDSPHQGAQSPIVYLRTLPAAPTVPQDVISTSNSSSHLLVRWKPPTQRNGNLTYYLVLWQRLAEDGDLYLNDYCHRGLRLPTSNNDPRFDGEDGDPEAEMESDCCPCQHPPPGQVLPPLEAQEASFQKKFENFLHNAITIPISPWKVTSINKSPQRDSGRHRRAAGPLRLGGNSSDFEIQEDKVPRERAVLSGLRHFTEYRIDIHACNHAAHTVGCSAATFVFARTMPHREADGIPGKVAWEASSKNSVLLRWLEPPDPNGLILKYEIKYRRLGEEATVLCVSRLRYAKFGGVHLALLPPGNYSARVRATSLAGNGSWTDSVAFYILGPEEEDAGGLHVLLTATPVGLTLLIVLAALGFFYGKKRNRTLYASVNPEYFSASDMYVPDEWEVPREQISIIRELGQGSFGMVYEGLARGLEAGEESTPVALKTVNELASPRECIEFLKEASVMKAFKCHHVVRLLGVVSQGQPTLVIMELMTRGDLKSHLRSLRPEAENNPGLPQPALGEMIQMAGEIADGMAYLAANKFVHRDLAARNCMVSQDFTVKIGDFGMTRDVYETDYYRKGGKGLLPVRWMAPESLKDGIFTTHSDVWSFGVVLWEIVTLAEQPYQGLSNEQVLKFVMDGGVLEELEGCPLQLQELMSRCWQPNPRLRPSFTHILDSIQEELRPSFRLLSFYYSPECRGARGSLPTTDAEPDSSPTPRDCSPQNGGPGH
Sequence of OXSR1 (human) (O95747 whole entry, looked up): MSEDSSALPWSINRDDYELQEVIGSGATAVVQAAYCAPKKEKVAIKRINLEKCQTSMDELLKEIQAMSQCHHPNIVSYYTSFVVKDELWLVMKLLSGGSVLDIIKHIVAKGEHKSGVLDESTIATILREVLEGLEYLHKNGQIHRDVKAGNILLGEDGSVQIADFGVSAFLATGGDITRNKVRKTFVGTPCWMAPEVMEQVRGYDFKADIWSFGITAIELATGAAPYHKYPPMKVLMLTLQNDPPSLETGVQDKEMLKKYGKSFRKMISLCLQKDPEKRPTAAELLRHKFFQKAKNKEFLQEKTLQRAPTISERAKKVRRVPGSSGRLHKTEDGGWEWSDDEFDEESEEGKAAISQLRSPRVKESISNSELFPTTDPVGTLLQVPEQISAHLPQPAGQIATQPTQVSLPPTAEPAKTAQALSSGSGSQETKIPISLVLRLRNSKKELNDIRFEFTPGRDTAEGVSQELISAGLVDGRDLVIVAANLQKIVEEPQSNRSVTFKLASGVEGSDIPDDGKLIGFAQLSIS
Sequence of FER (human) (P16591 whole entry, looked up): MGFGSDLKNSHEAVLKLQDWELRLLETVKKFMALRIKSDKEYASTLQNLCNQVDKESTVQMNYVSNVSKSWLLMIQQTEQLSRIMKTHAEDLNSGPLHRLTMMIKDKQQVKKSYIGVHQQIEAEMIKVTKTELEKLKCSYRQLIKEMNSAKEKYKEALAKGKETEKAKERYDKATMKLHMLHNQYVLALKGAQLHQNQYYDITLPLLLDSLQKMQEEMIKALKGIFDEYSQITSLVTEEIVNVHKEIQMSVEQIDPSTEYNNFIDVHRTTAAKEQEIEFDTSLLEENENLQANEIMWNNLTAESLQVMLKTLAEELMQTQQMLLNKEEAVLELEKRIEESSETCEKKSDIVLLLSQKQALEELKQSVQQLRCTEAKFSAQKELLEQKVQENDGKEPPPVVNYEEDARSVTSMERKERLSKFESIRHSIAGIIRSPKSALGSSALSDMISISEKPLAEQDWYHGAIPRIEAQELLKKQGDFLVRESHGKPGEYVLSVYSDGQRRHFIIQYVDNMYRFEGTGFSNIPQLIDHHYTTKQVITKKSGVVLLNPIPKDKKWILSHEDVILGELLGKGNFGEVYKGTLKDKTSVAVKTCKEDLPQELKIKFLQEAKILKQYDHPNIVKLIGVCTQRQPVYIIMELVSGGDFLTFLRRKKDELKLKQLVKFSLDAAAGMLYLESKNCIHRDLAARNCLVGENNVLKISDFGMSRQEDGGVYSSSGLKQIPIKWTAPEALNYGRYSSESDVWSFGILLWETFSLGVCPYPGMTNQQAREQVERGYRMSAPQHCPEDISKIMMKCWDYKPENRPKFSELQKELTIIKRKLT
Sequence of PAK6 (human) (Q9NQU5 whole entry, looked up): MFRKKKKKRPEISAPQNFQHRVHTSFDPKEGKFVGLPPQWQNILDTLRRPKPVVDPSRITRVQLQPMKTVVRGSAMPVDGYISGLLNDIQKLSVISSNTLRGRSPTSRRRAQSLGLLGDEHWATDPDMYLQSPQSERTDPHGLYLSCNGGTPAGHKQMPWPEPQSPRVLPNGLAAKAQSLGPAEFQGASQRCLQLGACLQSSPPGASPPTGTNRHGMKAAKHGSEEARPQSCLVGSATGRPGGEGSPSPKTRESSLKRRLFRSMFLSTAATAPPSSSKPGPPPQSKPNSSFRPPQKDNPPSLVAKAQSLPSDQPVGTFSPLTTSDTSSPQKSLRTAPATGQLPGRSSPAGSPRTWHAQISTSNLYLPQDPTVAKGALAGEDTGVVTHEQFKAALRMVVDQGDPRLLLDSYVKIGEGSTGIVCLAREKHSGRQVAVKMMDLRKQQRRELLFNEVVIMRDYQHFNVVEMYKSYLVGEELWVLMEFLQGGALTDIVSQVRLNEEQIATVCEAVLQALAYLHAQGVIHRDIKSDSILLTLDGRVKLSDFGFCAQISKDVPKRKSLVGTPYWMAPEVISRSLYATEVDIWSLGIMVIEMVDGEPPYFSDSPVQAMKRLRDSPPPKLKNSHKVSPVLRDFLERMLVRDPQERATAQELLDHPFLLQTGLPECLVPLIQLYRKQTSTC

COc1cc(C(=O)N2CCC(N3CCN(C)CC3)CC2)ccc1Nc1ncc2c(n1)N(C)c1ccccc1C(=O)N2C
kinase still bound, per cent of control (SRC (human)): 100%
kinase still bound, per cent of control (MYLK3 (human)): 100%
kinase still bound, per cent of control (IRAK4 (human)): 83%
kinase still bound, per cent of control (FER (human)): 51%
kinase still bound, per cent of control (ROCK2 (human)): 87%
kinase still bound, per cent of control (DCLK3 (human)): 90%
kinase still bound, per cent of control (ZAP70 (human)): 79%
kinase still bound, per cent of control (CDK13 (human)): 100%
kinase still bound, per cent of control (OXSR1 (human)): 88%
kinase still bound, per cent of control (PAK4 (human)): 94%
kinase still bound, per cent of control (TAOK2 (human)): 65%
kinase still bound, per cent of control (RET (human)): 100%
kinase still bound, per cent of control (MELK (human)): 100%
kinase still bound, per cent of control (MAPKAPK2 (human)): 100%
kinase still bound, per cent of control (STK32B (human)): 100%
kinase still bound, per cent of control (ADCK3 (human)): 71%
kinase still bound, per cent of control (SIK1 (human)): 77%
kinase still bound, per cent of control (CDK18 (human)): 100%
kinase still bound, per cent of control (INSRR (human)): 97%
kinase still bound, per cent of control (SBK1 (human)): 100%
kinase still bound, per cent of control (MAPK9 (human)): 94%
kinase still bound, per cent of control (PIP5K1C (human)): 96%
kinase still bound, per cent of control (ABL2 (human)): 97%
kinase still bound, per cent of control (TGFBR1 (human)): 100%
kinase still bound, per cent of control (HIPK4 (human)): 100%
kinase still bound, per cent of control (PAK6 (human)): 98%
kinase still bound, per cent of control (MAPK4 (human)): 100%
kinase still bound, per cent of control (PRKCQ (human)): 100%
kinase still bound, per cent of control (CSNK2A2 (human)): 93%
kinase still bound, per cent of control (CDKL5 (human)): 100%
kinase still bound, per cent of control (FLT1 (human)): 100%
kinase still bound, per cent of control [1]: 84%
kinase still bound, per cent of control (DAPK1 (human)): 73%
kinase still bound, per cent of control (MAP3K10 (human)): 100%
kinase still bound, per cent of control (STK32C (human)): 100%
kinase still bound, per cent of control (EPHA6 (human)): 89%
kinase still bound, per cent of control (PKMYT1 (human)): 80%
kinase still bound, per cent of control (MAP2K1 (human)): 100%
kinase still bound, per cent of control (MYLK2 (human)): 98%
kinase still bound, per cent of control (PTK6 (human)): 58%

CN(C)C/C=C/C(=O)Nc1ccc(C(=O)Nc2cccc(Nc3nccc(-c4cccnc4)n3)c2)cc1
kinase still bound, per cent of control (SRC (human)): 100%
kinase still bound, per cent of control (MYLK3 (human)): 87%
kinase still bound, per cent of control (IRAK4 (human)): 34%
kinase still bound, per cent of control (FER (human)): 100%
kinase still bound, per cent of control (ROCK2 (human)): 41%
kinase still bound, per cent of control (DCLK3 (human)): 100%
kinase still bound, per cent of control (ZAP70 (human)): 85%
kinase still bound, per cent of control (CDK13 (human)): 86%
kinase still bound, per cent of control (OXSR1 (human)): 100%
kinase still bound, per cent of control (PAK4 (human)): 83%
kinase still bound, per cent of control (TAOK2 (human)): 70%
kinase still bound, per cent of control (RET (human)): 79%
kinase still bound, per cent of control (MELK (human)): 58%
kinase still bound, per cent of control (MAPKAPK2 (human)): 100%
kinase still bound, per cent of control (STK32B (human)): 100%
kinase still bound, per cent of control (ADCK3 (human)): 100%
kinase still bound, per cent of control (SIK1 (human)): 100%
kinase still bound, per cent of control (CDK18 (human)): 95%
kinase still bound, per cent of control (INSRR (human)): 100%
kinase still bound, per cent of control (SBK1 (human)): 100%
kinase still bound, per cent of control (MAPK9 (human)): 2.5%
kinase still bound, per cent of control (PIP5K1C (human)): 20%
kinase still bound, per cent of control (ABL2 (human)): 100%
kinase still bound, per cent of control (TGFBR1 (human)): 100%
kinase still bound, per cent of control (HIPK4 (human)): 8.6%
kinase still bound, per cent of control (PAK6 (human)): 46%
kinase still bound, per cent of control (MAPK4 (human)): 19%
kinase still bound, per cent of control (PRKCQ (human)): 68%
kinase still bound, per cent of control (CSNK2A2 (human)): 5.2%
kinase still bound, per cent of control (CDKL5 (human)): 60%
kinase still bound, per cent of control (FLT1 (human)): 46%
kinase still bound, per cent of control [1]: 100%
kinase still bound, per cent of control (DAPK1 (human)): 58%
kinase still bound, per cent of control (MAP3K10 (human)): 94%
kinase still bound, per cent of control (STK32C (human)): 100%
kinase still bound, per cent of control (EPHA6 (human)): 90%
kinase still bound, per cent of control (PKMYT1 (human)): 100%
kinase still bound, per cent of control (MAP2K1 (human)): 92%
kinase still bound, per cent of control (MYLK2 (human)): 53%
kinase still bound, per cent of control (PTK6 (human)): 100%

CCN1CCN(C(=O)Cc2ccc(Nc3ncc(F)c(Nc4ccc(C(=O)Nc5ccccc5Cl)cc4)n3)cc2)CC1
kinase still bound, per cent of control (SRC (human)): 18%
kinase still bound, per cent of control (MYLK3 (human)): 100%
kinase still bound, per cent of control (IRAK4 (human)): 100%
kinase still bound, per cent of control (FER (human)): 100%
kinase still bound, per cent of control (ROCK2 (human)): 75%
kinase still bound, per cent of control (DCLK3 (human)): 80%
kinase still bound, per cent of control (ZAP70 (human)): 100%
kinase still bound, per cent of control (CDK13 (human)): 100%
kinase still bound, per cent of control (OXSR1 (human)): 100%
kinase still bound, per cent of control (PAK4 (human)): 47%
kinase still bound, per cent of control (TAOK2 (human)): 56%
kinase still bound, per cent of control (RET (human)): 1.8%
kinase still bound, per cent of control (MELK (human)): 55%
kinase still bound, per cent of control (MAPKAPK2 (human)): 100%
kinase still bound, per cent of control (STK32B (human)): 100%
kinase still bound, per cent of control (ADCK3 (human)): 43%
kinase still bound, per cent of control (SIK1 (human)): 28%
kinase still bound, per cent of control (CDK18 (human)): 43%
kinase still bound, per cent of control (INSRR (human)): 63%
kinase still bound, per cent of control (SBK1 (human)): 75%
kinase still bound, per cent of control (MAPK9 (human)): 0.75%
kinase still bound, per cent of control (PIP5K1C (human)): 77%
kinase still bound, per cent of control (ABL2 (human)): 20%
kinase still bound, per cent of control (TGFBR1 (human)): 57%
kinase still bound, per cent of control (HIPK4 (human)): 2.4%
kinase still bound, per cent of control (PAK6 (human)): 65%
kinase still bound, per cent of control (MAPK4 (human)): 82%
kinase still bound, per cent of control (PRKCQ (human)): 74%
kinase still bound, per cent of control (CSNK2A2 (human)): 7.8%
kinase still bound, per cent of control (CDKL5 (human)): 100%
kinase still bound, per cent of control (FLT1 (human)): 9.6%
kinase still bound, per cent of control [1]: 76%
kinase still bound, per cent of control (DAPK1 (human)): 3.8%
kinase still bound, per cent of control (MAP3K10 (human)): 7.2%
kinase still bound, per cent of control (STK32C (human)): 77%
kinase still bound, per cent of control (EPHA6 (human)): 46%
kinase still bound, per cent of control (PKMYT1 (human)): 100%
kinase still bound, per cent of control (MAP2K1 (human)): 76%
kinase still bound, per cent of control (MYLK2 (human)): 66%
kinase still bound, per cent of control (PTK6 (human)): 16%

From the kinase profiling compilation of Christmann-Franck et al. (2016)
